{"source": "patent US8613927B2", "about": "“High affinity human antibodies to human nerve growth factor” (Regeneron Pharmaceuticals, Inc., priority 2007, dated 2013)", "key": {"[1]": {"system": "C57BL/6 male mice", "experiment": "Seltzer model of neuropathic pain, Hargreaves' test", "format": "in vivo, mouse", "from_the_text": "Neuropathic pain. The mouse Seltzer model of neuropathic pain (Malmberg et al. (1998) Pain 76:215-222) was used with C57BL/6 male mice, in which a partial nerve injury was produced by tying a tight ligature with a 7-0 silk suture around approximately ⅓ to ½ the diameter of the sciatic nerve of one single thigh per mouse. Post-surgery, the mice were allowed to recover for at least two days and then they were studied for several weeks post-surgery for thermal hyperalgesia in the Hargreaves' test. Controls were sham-operated mice in which the sciatic nerve was exposed and elevated but not tied. Following surgery, the mice were tested at day […] and at day 7 post-surgery to confirm that the thermal hyperalgesia had developed.\nFollowing the Seltzer surgery, mice were tested at days 5 and 7 post-surgery to confirm that the thermal hyperalgesia had developed."}, "[2]": {"molecular_target": "T1, human NT-3 binding to human TrkB-hFc (Homo sapiens, UniProt P20783)", "T1 sequence (P20783 139-257)": "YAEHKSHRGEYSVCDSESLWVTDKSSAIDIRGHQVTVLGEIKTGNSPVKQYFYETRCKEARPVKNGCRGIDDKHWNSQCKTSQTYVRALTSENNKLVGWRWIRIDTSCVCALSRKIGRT", "experiment": "BIACORE, NT-3 binding to TrkB-hFc surface in presence of antibody", "settings": "20 nM NT-3 + 500 nM sample; normalized to IgG1 control", "method": "(§1) Human TrkA-hFc (9300 RU), human TrkB-hFc (6000 RU), human TrkC-hFc (9100 RU) and human p75-hFc (7500 RU) were covalently coupled to BIACORE® CM5 chip surfaces by amine-coupling procedure. […] The binding mixture was first incubated at room temperature to reach equilibrium (about 1 hr) and then was injected over the above TrkA-hFc, TrkB-hFc, TrkC-hFc and p75-hFc surfaces. The level of human NT-3 binding in each sample was measured. The binding RU from each sample mixture was normalized according to the RU value from the negative control sample (i.e., 20 nM human NT-3 with 500 nM AVASTIN®) and presented as % binding to Trk surfaces (Table 9)."}, "[3]": {"molecular_target": "T2, human NT-3 binding to human TrkA-hFc (Homo sapiens, UniProt P20783)", "T2 sequence (P20783 139-257)": "T1 sequence (P20783 139-257)", "experiment": "BIACORE, NT-3 binding to TrkA-hFc surface in presence of antibody", "settings": "20 nM NT-3 + 500 nM sample; normalized to IgG1 control", "method": "as §1"}, "[4]": {"molecular_target": "T3, human NT-3 binding to human TrkC-hFc (Homo sapiens, UniProt P20783)", "T3 sequence (P20783 139-257)": "T1 sequence (P20783 139-257)", "experiment": "BIACORE, NT-3 binding to TrkC-hFc surface in presence of antibody", "settings": "20 nM NT-3 + 500 nM sample; normalized to IgG1 control", "method": "as §1"}, "[5]": {"molecular_target": "T4, human NT-3 binding to human p75-hFc (Homo sapiens, UniProt P20783)", "T4 sequence (P20783 139-257)": "T1 sequence (P20783 139-257)", "experiment": "BIACORE, NT-3 binding to p75-hFc surface in presence of antibody", "settings": "20 nM NT-3 + 500 nM sample; normalized to IgG1 control", "method": "as §1"}}}
{"substance": "IgG1 Control: negative binding control, IgG1 control (AVASTIN®; Genentech, CA)", "values": [{"measurement": "mean percent change from Hargreaves baseline", "setting": "[1]; Table 24, injected Day 14, Day 5 after surgery", "value": "−60.0 ± 4.8", "unit": "%"}, {"measurement": "mean percent change from Hargreaves baseline", "setting": "[1]; Table 24, injected Day 14, Day 7", "value": "−54.4 ± 6.4", "unit": "%"}, {"measurement": "mean percent change from Hargreaves baseline", "setting": "[1]; Table 24, injected Day 14, Day 8", "value": "−55.3 ± 6.1", "unit": "%"}, {"measurement": "mean percent change from Hargreaves baseline", "setting": "[1]; Table 24, injected Day 14, Day 10", "value": "−52.8 ± 7.2", "unit": "%"}, {"measurement": "mean percent change from Hargreaves baseline", "setting": "[1]; Table 24, injected Day 14, Day 14", "value": "−62.1 ± 5.7", "unit": "%"}, {"measurement": "mean percent change from Hargreaves baseline", "setting": "[1]; Table 24, injected Day 14, Day 15", "value": "−63.0 ± 5.8", "unit": "%"}, {"measurement": "mean percent change from Hargreaves baseline", "setting": "[1]; Table 24, injected Day 14, Day 17", "value": "−58.6 ± 5.7", "unit": "%"}, {"measurement": "mean percent change from Hargreaves baseline", "setting": "[1]; Table 24, injected Day 14, Day 21", "value": "−57.1 ± 4.4", "unit": "%"}, {"measurement": "mean percent change from Hargreaves baseline", "setting": "[1]; Table 24, injected Day 14, Day 24", "value": "−49.5 ± 6.6", "unit": "%"}, {"measurement": "mean percent change from Hargreaves baseline", "setting": "[1]; Table 24, injected Day 14, Day 28", "value": "−53.6 ± 5.4", "unit": "%"}, {"measurement": "mean percent change from Hargreaves baseline", "setting": "[1]; Table 24, injected Day 14, Day 32", "value": "−40.9 ± 13.1", "unit": "%"}, {"measurement": "mean percent change from Hargreaves baseline", "setting": "[1]; Table 24, injected Day 14, Day 35", "value": "−42.9 ± 10.3", "unit": "%"}, {"measurement": "mean percent change from Hargreaves baseline", "setting": "[1]; Table 24, injected Day 14, Day 39", "value": "−39.0 ± 11.4", "unit": "%"}, {"measurement": "mean percent change from Hargreaves baseline", "setting": "[1]; Table 24, injected Day 14, Day 42", "value": "−38.1 ± 12.5", "unit": "%"}, {"measurement": "mean percent change from Hargreaves baseline", "setting": "[1]; Table 24, injected Day 21, Day 5 after surgery", "value": "−55.5 ± 5.0", "unit": "%"}, {"measurement": "mean percent change from Hargreaves baseline", "setting": "[1]; Table 24, injected Day 21, Day 7", "value": "−47.2 ± 4.8", "unit": "%"}, {"measurement": "mean percent change from Hargreaves baseline", "setting": "[1]; Table 24, injected Day 21, Day 8", "value": "−47.9 ± 4.7", "unit": "%"}, {"measurement": "mean percent change from Hargreaves baseline", "setting": "[1]; Table 24, injected Day 21, Day 10", "value": "−55.0 ± 6.7", "unit": "%"}, {"measurement": "mean percent change from Hargreaves baseline", "setting": "[1]; Table 24, injected Day 21, Day 14", "value": "−63.8 ± 4.6", "unit": "%"}, {"measurement": "mean percent change from Hargreaves baseline", "setting": "[1]; Table 24, injected Day 21, Day 15", "value": "−54.5 ± 5.0", "unit": "%"}, {"measurement": "mean percent change from Hargreaves baseline", "setting": "[1]; Table 24, injected Day 21, Day 17", "value": "−52.4 ± 5.3", "unit": "%"}, {"measurement": "mean percent change from Hargreaves baseline", "setting": "[1]; Table 24, injected Day 21, Day 21", "value": "−55.8 ± 3.6", "unit": "%"}, {"measurement": "mean percent change from Hargreaves baseline", "setting": "[1]; Table 24, injected Day 21, Day 22", "value": "−50.6 ± 5.3", "unit": "%"}, {"measurement": "mean percent change from Hargreaves baseline", "setting": "[1]; Table 24, injected Day 21, Day 24", "value": "−44.7 ± 5.7", "unit": "%"}, {"measurement": "mean percent change from Hargreaves baseline", "setting": "[1]; Table 24, injected Day 21, Day 28", "value": "−46.0 ± 7.6", "unit": "%"}, {"measurement": "mean percent change from Hargreaves baseline", "setting": "[1]; Table 24, injected Day 21, Day 32", "value": "−32.8 ± 4.8", "unit": "%"}, {"measurement": "mean percent change from Hargreaves baseline", "setting": "[1]; Table 24, injected Day 21, Day 35", "value": "−39.8 ± 4.5", "unit": "%"}, {"measurement": "mean percent change from Hargreaves baseline", "setting": "[1]; Table 24, injected Day 21, Day 39", "value": "−34.6 ± 10.0", "unit": "%"}, {"measurement": "mean percent change from Hargreaves baseline", "setting": "[1]; Table 24, injected Day 21, Day 42", "value": "−33.9 ± 9.9", "unit": "%"}, {"measurement": "mean percent change from Hargreaves baseline", "setting": "[1]; Table 25, 50 mg/kg s.c. at day 7, day 5 after surgery", "value": "−51.2 ± 5.2", "unit": "%"}, {"measurement": "mean percent change from Hargreaves baseline", "setting": "[1]; Table 25, 50 mg/kg s.c. at day 7, day 7", "value": "−47.6 ± 3.9", "unit": "%"}, {"measurement": "mean percent change from Hargreaves baseline", "setting": "[1]; Table 25, 50 mg/kg s.c. at day 7, day 9", "value": "−36.7 ± 14.6", "unit": "%"}, {"measurement": "mean percent change from Hargreaves baseline", "setting": "[1]; Table 25, 50 mg/kg s.c. at day 7, day 12", "value": "−47.2 ± 5.5", "unit": "%"}, {"measurement": "mean percent change from Hargreaves baseline", "setting": "[1]; Table 25, 50 mg/kg s.c. at day 7, day 15", "value": "−46.7 ± 8.5", "unit": "%"}, {"measurement": "mean percent change from Hargreaves baseline", "setting": "[1]; Table 25, 50 mg/kg s.c. at day 7, day 19", "value": "−28.6 ± 7.5", "unit": "%"}, {"measurement": "mean percent change from Hargreaves baseline", "setting": "[1]; Table 25, 50 mg/kg s.c. at day 7, day 22", "value": "−34.9 ± 7.9", "unit": "%"}, {"measurement": "mean percent change from Hargreaves baseline", "setting": "[1]; Table 25, 50 mg/kg s.c. at day 7 post-surgery, Baseline", "value": "0.0 ± 0.0", "unit": "%"}, {"measurement": "mean percent change from Hargreaves baseline", "setting": "[1]; Table 26, 50 mg/kg i.p. at day 7, day 5 after surgery", "value": "−55.5 ± 3.8", "unit": "%"}, {"measurement": "mean percent change from Hargreaves baseline", "setting": "[1]; Table 26, 50 mg/kg i.p. at day 7, day 7", "value": "−61.6 ± 1.8", "unit": "%"}, {"measurement": "mean percent change from Hargreaves baseline", "setting": "[1]; Table 26, 50 mg/kg i.p. at day 7, day 8", "value": "−59.3 ± 4.0", "unit": "%"}, {"measurement": "mean percent change from Hargreaves baseline", "setting": "[1]; Table 26, 50 mg/kg i.p. at day 7, day 9", "value": "−51.0 ± 4.2", "unit": "%"}, {"measurement": "mean percent change from Hargreaves baseline", "setting": "[1]; Table 26, 50 mg/kg i.p. at day 7, day 12", "value": "−46.5 ± 6.3", "unit": "%"}, {"measurement": "mean percent change from Hargreaves baseline", "setting": "[1]; Table 26, 50 mg/kg i.p. at day 7, day 15", "value": "−43.3 ± 6.6", "unit": "%"}, {"measurement": "mean percent change from Hargreaves baseline", "setting": "[1]; Table 26, 50 mg/kg i.p. at day 7 post-surgery, Baseline", "value": "0.0 ± 0.0", "unit": "%"}, {"measurement": "% binding to TrkB-hFc surface", "setting": "[2]", "value": 100, "unit": "%"}, {"measurement": "% binding to TrkA-hFc surface", "setting": "[3]", "value": 100, "unit": "%"}, {"measurement": "% binding to TrkC-hFc surface", "setting": "[4]", "value": 100, "unit": "%"}, {"measurement": "% binding to p75-hFc surface", "setting": "[5]", "value": 100, "unit": "%"}]}
